Reference: ChEMBL document CHEMBL4699468, “Structural hybridization as a facile approach to new drug candidates” (Bioorg Med Chem Lett, 2020)
In brackets after ≈: the same amount, converted by molar mass. Each block holds one compound with its values, some of them ahead of it.

What was measured:
[1] = test system: Escherichia coli; experiment: Antibacterial activity against Escherichia coli; format: functional
[2] = test system: Staphylococcus aureus; experiment: Antibacterial activity against Staphylococcus aureus; format: functional
[3] = test system: Plasmodium falciparum; experiment: Antiplasmodial activity against Plasmodium falciparum W2; format: functional, organism-based
[4] = test system: Plasmodium falciparum; experiment: Antiplasmodial activity against chloroquine-resistant Plasmodium falciparum K1 infected in human erythrocytes incubated for 72 hrs by SYBR green staining based fluorescence assay; format: functional, organism-based; conditions: K1, 72 h
[5] = test system: Plasmodium falciparum; experiment: Antiplasmodial activity against chloroquine-resistant Plasmodium falciparum Dd2 infected in human erythrocytes incubated for 72 hrs by SYBR green staining based fluorescence assay; format: functional, organism-based; conditions: Dd2, 72 h
[6] = test system: Pseudomonas aeruginosa; experiment: Antibacterial activity against Pseudomonas aeruginosa ATCC 91433; format: functional
[7] = test system: MCF7; experiment: Cytotoxicity against human MCF7 by microculture tetrazolium assay; format: functional, cell-based
[8] = test system: Pseudomonas aeruginosa; experiment: Antibacterial activity against Pseudomonas aeruginosa ATCC 27853 incubated for 24 hrs by CLSI-based macrobroth dilution method; format: functional
[9] = test system: Enterobacter cloacae; experiment: Antibacterial activity against Enterobacter cloacae incubated for 18 hrs by agar dilution method; format: functional
[10] = test system: Escherichia coli; experiment: Antibacterial activity against Escherichia coli incubated for 18 hrs by agar dilution method; format: functional
[11] = test system: Providencia rettgeri; experiment: Antibacterial activity against Proteus rettgeri incubated for 18 hrs by agar dilution method; format: functional
[12] = test system: Proteus mirabilis; experiment: Antibacterial activity against Proteus mirabilis 431 incubated for 18 hrs by agar dilution method; format: functional
[13] = test system: Citrobacter freundii; experiment: Antibacterial activity against Citrobacter freundii incubated for 18 hrs by agar dilution method; format: functional
[14] = test system: Morganella morganii; experiment: Antibacterial activity against Proteus morganii NCTC235 incubated for 18 hrs by agar dilution method; format: functional
[15] = test system: Morganella morganii; experiment: Antibacterial activity against Proteus morganii incubated for 18 hrs by agar dilution method; format: functional
[16] = test system: Klebsiella aerogenes; experiment: Antibacterial activity against Klebsiella aerogenes incubated for 18 hrs by agar dilution method; format: functional
[17] = test system: Staphylococcus aureus; experiment: Antibacterial activity against Staphylococcus aureus incubated for 18 hrs by agar dilution method; format: functional
[18] = test system: Hafnia alvei; experiment: Antibacterial activity against Enterobacter hafniae incubated for 18 hrs by agar dilution method; format: functional
[19] = test system: Plasmodium falciparum; experiment: Antiplasmodial activity against […] Plasmodium falciparum 3D7 infected in human erythrocytes incubated for 72 hrs by SYBR green staining based fluorescence assay; format: functional, organism-based; conditions: 3D7, 72 h
[20] = test system: A549; experiment: Growth inhibition of human A549 cells incubated for 72 hrs by MTT assay; format: functional, cell-based; conditions: A549, 72 h
[21] = test system: MDA-MB-231; experiment: Growth inhibition of human MDA-MBA-231 cells incubated for 72 hrs by MTT assay; format: functional, cell-based; conditions: MDA-MB-231, 72 h
[22] = test system: HT-29; experiment: Growth inhibition of human HT-29 cells incubated for 72 hrs by MTT assay; format: functional, cell-based; conditions: HT-29, 72 h
[23] = test system: Human betaherpesvirus 5; experiment: Antiviral activity against GFP-transfected Human cytomegalovirus AD169 infected in human HFF cells measured after 7 days by GFP fluorometry; format: functional, cell-based; conditions: Human betaherpesvirus 5, AD169, HFF, 168 h

MIC [1]: 1 µg/mL (≈ 1.58 µM) | MIC [2]: 0.5 µg/mL (≈ 0.789 µM)
Structure (SMILES): COc1cc(Cc2cnc(N)nc2N)cc(OC)c1OCCN1CCN(c2cc3c(cc2F)c(=O)c(C(=O)O)cn3C2CC2)CC1

IC50 [3]: 1410 nM
Structure (SMILES): COc1cc(NCCCCn2c(-c3ccc(F)cc3)c(-c3ccccc3)c(C(=O)Nc3ccccc3)c2C(C)C)c2ncccc2c1

Structure (SMILES): C[C@H]1[C@@H](OCc2cn(-c3ccnc4cc(Cl)ccc34)nn2)O[C@@H]2O[C@@]3(C)CC[C@H]4[C@H](C)CC[C@@H]1[C@@]24OO3
EC50 [4]: 4.3 nM | EC50 [5]: 5.9 nM

Structure (SMILES): C[C@H]1[C@H](OC(=O)CCC(=O)NCCNc2ccnc3cc(Cl)ccc23)O[C@@H]2O[C@@]3(C)CC[C@H]4[C@H](C)CC[C@@H]1[C@@]24OO3
EC50 [4]: 0.78 nM | EC50 [5]: 1 nM

Structure (SMILES): N[C@@H](CCl)C(=O)N[C@@H](CCl)C(=O)OCC1=C(C(=O)O)N2C(=O)[C@@H](NC(=O)Cc3cccs3)[C@H]2SC1
MIC [1]: 7.05 µg/mL (≈ 12.5 µM)

MIC [6]: 8 µg/mL (≈ 7.85 µM)
Structure (SMILES): NCCCCC(N)C(=O)N(CCCCCCCCCCCCO[C@@H]1[C@@H](O[C@@H]2O[C@H](CO)[C@@H](O)[C@H](N)[C@H]2O)[C@H](N)C[C@H](N)[C@H]1O[C@H]1O[C@H](CN)[C@@H](O)[C@H](O)[C@H]1N)Cc1c2ccccc2c(Cl)c2ccccc12 (stereo not given in full)

Structure (SMILES): C[C@H]1[C@@H](CCS(=O)(=O)CC[C@H]2O[C@@H]3O[C@]4(C)CC[C@H]5[C@H](C)CC[C@@H]([C@H]2C)[C@@]35OO4)O[C@@H]2O[C@]3(C)CC[C@H]4[C@H](C)CC[C@@H]1[C@@]24OO3
EC50 [7]: 25 nM

MIC [8]: 4 µg/mL (≈ 4.08 µM)
Structure (SMILES): NC[C@H]1O[C@H](O[C@H]2[C@H](OCCCCCCCCCCCCN3CCN(c4cc5c(cc4F)c(=O)c(C(=O)O)cn5C4CC4)CC3)[C@@H](O[C@@H]3O[C@H](CO)[C@@H](O)[C@H](N)[C@H]3O)[C@H](N)C[C@@H]2N)[C@H](N)[C@@H](O)[C@@H]1O

Structure (SMILES): C[C@H]1[C@H](OC(=O)CCC(=O)OCc2cn(-c3ccnc4cc(Cl)ccc34)nn2)O[C@@H]2O[C@@]3(C)CC[C@H]4[C@H](C)CC[C@@H]1[C@@]24OO3
EC50 [4]: 1.8 nM | EC50 [5]: 4.2 nM

MIC [9]: 0.5 µg/mL (≈ 1.06 µM) | MIC [10]: 0.5 µg/mL (≈ 1.06 µM) | MIC [11]: 0.5 µg/mL (≈ 1.06 µM) | MIC [12]: 0.5 µg/mL (≈ 1.06 µM) | MIC [13]: 0.5 µg/mL (≈ 1.06 µM) | MIC [14]: 0.5 µg/mL (≈ 1.06 µM) | MIC [15]: 0.5 µg/mL (≈ 1.06 µM) | MIC [16]: 0.5 µg/mL (≈ 1.06 µM) | MIC [17]: 0.5 µg/mL (≈ 1.06 µM) | MIC [18]: 0.5 µg/mL (≈ 1.06 µM)
Structure (SMILES): O=C(O)C1=C(CSc2cccc[n+]2[O-])CS[C@@H]2[C@H](NC(=O)[C@H](O)c3ccccc3)C(=O)N12

Structure (SMILES): C[C@H]1[C@H](OC(=O)CCC(=O)OCCOC(=O)CC(=O)OCCOC(=O)CCC(=O)O[C@@H]2O[C@@H]3O[C@@]4(C)CC[C@H]5[C@H](C)CC[C@@H]([C@H]2C)[C@@]35OO4)O[C@@H]2O[C@@]3(C)CC[C@H]4[C@H](C)CC[C@@H]1[C@@]24OO3
EC50 [19]: 1.4 nM

Structure (SMILES): C[C@H]1[C@@H](OCCNC(=Nc2cc(C(F)(F)F)ccc2Cl)NCCO[C@H]2O[C@@H]3O[C@]4(C)CC[C@H]5[C@H](C)CC[C@@H]([C@H]2C)[C@@]35OO4)O[C@@H]2O[C@]3(C)CC[C@H]4[C@H](C)CC[C@@H]1[C@@]24OO3
EC50 [20]: 240 nM | EC50 [21]: 1420 nM | EC50 [22]: 1400 nM

Structure (SMILES): C[C@H]1[C@H](OC(=O)CCC(=O)OCCCNc2ncnc3c(C#N)c(-c4ccc(C(F)(F)F)cc4)cc(-c4ccc(C(F)(F)F)cc4)c23)O[C@@H]2O[C@]3(C)CC[C@H]4[C@H](C)CC[C@@H]1[C@@]24OO3
EC50 [23]: 100 nM

Structure (SMILES): CCN(CC)CCCC(C)Nc1ccnc2cc(Cl)ccc12 (stereo not given) [CHLOROQUINE]
EC50 [4]: 303 nM | EC50 [5]: 165 nM
